Test [1] addresses T1, Cannabinoid receptor (Mus musculus) (UniProt P47746+P47936). The test can be described thus: Agonist activity at cannabinoid receptor in ICR mouse vas deferens assessed as inhibition of electrically induced contractions at 1.82 x 10^-5 M after 10 mins in presence of CB1 antagonist AM251 relative to control. It counts as protein assay.
Test [2] has as its target T1, Cannabinoid receptor (Mus musculus). The test can be described thus: Agonist activity at cannabinoid receptor in ICR mouse vas deferens assessed as inhibition of electrically induced contractions at 8.1 x 10^-6 M after 10 mins in presence of CB1 antagonist AM251 relative to control. The format is protein assay.
Test [3] has the same target. The test can be described thus: Agonist activity at cannabinoid receptor in ICR mouse vas deferens assessed as inhibition of electrically induced contractions at 2.7 x 10^-6 M after 10 mins in presence of CB1 antagonist AM251 relative to control. It counts as protein assay.
Test [4] has the same target. The test can be described thus: Agonist activity at cannabinoid receptor in ICR mouse vas deferens assessed as inhibition of electrically induced contractions at 9 x 10^-7 M after 10 mins in presence of CB1 antagonist AM251 relative to control. The format is protein assay.
For test [5] the target is unchanged. The test can be described thus: Agonist activity at cannabinoid receptor in ICR mouse vas deferens assessed as inhibition of electrically induced contractions at 10^-7 M after 10 mins in presence of CB1 antagonist AM251 relative to control. It counts as protein assay.
The target is the same in test [6]. The test can be described thus: Agonist activity at cannabinoid receptor in ICR mouse vas deferens assessed as inhibition of electrically induced contractions at 3 x 10^-7 M after 10 mins in presence of CB1 antagonist AM251 relative to control. The format is protein assay.
Test [7] shares this target. Briefly: Agonist activity at cannabinoid receptor in ICR mouse vas deferens assessed as inhibition of electrically induced contractions at 2.7 x 10^-6 M after 10 mins in presence of CB2 antagonist AM630 relative to control. The format is protein assay.
Test [8] shares this target. Briefly: Agonist activity at cannabinoid receptor in ICR mouse vas deferens assessed as inhibition of electrically induced contractions at 2.7 x 10^-6 M after 10 mins relative to control. The format is protein assay.
For test [9] the target is unchanged. The test can be described thus: Agonist activity at cannabinoid receptor in ICR mouse vas deferens assessed as inhibition of electrically induced contractions at 8.1 x 10^-6 M after 10 mins relative to control. The format is protein assay.
Test [10] has the same target. The test can be described thus: Agonist activity at cannabinoid receptor in ICR mouse vas deferens assessed as inhibition of electrically induced contractions at 8.1 x 10^-6 M after 10 mins in presence of CB2 antagonist AM630 relative to control. It counts as protein assay.
The target is the same in test [11]. The test can be described thus: Agonist activity at cannabinoid receptor in ICR mouse vas deferens assessed as inhibition of electrically induced contractions at 9 x 10^-7 M after 10 mins relative to control. The format is protein assay.
Test [12] shares this target. The test can be described thus: Agonist activity at cannabinoid receptor in ICR mouse vas deferens assessed as inhibition of electrically induced contractions at 10^-7 M after 10 mins relative to control. It counts as protein assay.
For test [13] the target is unchanged. The test can be described thus: Agonist activity at cannabinoid receptor in ICR mouse vas deferens assessed as inhibition of electrically induced contractions at 1.82 x 10^-5 M after 10 mins in presence of CB2 antagonist AM630 relative to control. It counts as protein assay.
The target is the same in test [14]. The test can be described thus: Agonist activity at cannabinoid receptor in ICR mouse vas deferens assessed as inhibition of electrically induced contractions at 1.82 x 10^-5 M after 10 mins relative to control. The format is protein assay.
For test [15] the target is unchanged. Briefly: Agonist activity at cannabinoid receptor in ICR mouse vas deferens assessed as inhibition of electrically induced contractions at 3 x 10^-7 M after 10 mins relative to control. It counts as protein assay.
The target is the same in test [16]. The test can be described thus: Agonist activity at cannabinoid receptor in ICR mouse vas deferens assessed as inhibition of electrically induced contractions at 3 x 10^-7 M after 10 mins in presence of CB2 antagonist AM630 relative to control. The format is protein assay.
The target is the same in test [17]. The test can be described thus: Agonist activity at cannabinoid receptor in ICR mouse vas deferens assessed as inhibition of electrically induced contractions at 10^-7 M after 10 mins in presence of CB2 antagonist AM630 relative to control. The format is protein assay.
For test [18] the target is unchanged. The test can be described thus: Agonist activity at cannabinoid receptor in ICR mouse vas deferens assessed as inhibition of electrically induced contractions at 9 x 10^-7 M after 10 mins in presence of CB2 antagonist AM630 relative to control. The format is protein assay.
The target of another test is Acetylcholinesterase (Homo sapiens, UniProt P22303). The test can be described thus: Inhibition of human erythrocyte AChE using acetylthiocholine as substrate by Ellman's assay.
Test [19] has as its target Beta-secretase 1 (Homo sapiens) (UniProt P56817). The test can be described thus: Inhibition of human BACE1 at 10 uM incubated for 60 mins using rhodamine-EVNLDAEFK-quencher substrate by FRET assay.
The nature of test [20]: Antioxidant activity assessed as trolox equivalent of APPH-induced radical scavenging activity by ORAC-FL assay. It counts as functional.
The target of another test is Cholinesterase (Homo sapiens, UniProt P06276). Briefly: Inhibition of human serum BChE using butyrylthiocholine as substrate by Ellman's assay. (DTNB colorimetry detects thiols as they appear.)

Molecules are shown by their SMILES. The source made the active and inactive calls. The calls are words filed in the database; no cut-off is given here.

inhibition, IC50 and Activity data for 8 molecules are collected here from ChEMBL document CHEMBL4400519, “Indazolylketones as new multitarget cannabinoid drugs” (Eur J Med Chem, 2019).

The term inhibition denotes the relative decrease from the control value, in per cent. In general, IC50 refers to the concentration that inhibits the measured activity by half. Lower therefore signals greater potency in that assay.

Chain of Beta-secretase 1 (Homo sapiens) (P56817 whole entry): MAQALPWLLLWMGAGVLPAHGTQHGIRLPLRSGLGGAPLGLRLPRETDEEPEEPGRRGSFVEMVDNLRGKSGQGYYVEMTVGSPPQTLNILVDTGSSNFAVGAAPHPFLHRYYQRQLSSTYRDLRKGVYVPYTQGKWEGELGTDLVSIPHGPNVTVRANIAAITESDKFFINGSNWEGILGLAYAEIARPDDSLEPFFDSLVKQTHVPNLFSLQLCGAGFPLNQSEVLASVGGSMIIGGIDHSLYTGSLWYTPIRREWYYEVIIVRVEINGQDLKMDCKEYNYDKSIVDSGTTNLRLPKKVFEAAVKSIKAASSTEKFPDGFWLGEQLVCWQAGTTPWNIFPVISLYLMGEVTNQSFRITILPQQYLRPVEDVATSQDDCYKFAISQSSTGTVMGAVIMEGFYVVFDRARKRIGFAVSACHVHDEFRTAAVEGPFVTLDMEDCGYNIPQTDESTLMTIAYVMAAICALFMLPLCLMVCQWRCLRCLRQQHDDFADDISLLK
Chain of Cholinesterase (P06276 whole entry): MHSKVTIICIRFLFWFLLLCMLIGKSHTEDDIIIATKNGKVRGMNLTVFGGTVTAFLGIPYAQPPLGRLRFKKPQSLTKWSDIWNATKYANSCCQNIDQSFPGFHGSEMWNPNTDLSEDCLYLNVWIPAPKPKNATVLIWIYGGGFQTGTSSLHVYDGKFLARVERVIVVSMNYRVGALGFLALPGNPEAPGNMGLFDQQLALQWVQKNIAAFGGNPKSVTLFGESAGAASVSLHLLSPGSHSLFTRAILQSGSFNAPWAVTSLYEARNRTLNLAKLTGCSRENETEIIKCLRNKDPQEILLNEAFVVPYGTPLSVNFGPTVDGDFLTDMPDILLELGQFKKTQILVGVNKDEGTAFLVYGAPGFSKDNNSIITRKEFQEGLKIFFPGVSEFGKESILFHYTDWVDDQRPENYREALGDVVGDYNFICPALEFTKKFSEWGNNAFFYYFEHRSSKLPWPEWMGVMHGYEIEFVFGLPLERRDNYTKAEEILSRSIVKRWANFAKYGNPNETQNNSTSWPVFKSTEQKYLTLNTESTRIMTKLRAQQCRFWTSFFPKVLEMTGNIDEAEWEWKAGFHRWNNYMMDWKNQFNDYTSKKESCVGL
Chain of Acetylcholinesterase (P22303 whole entry): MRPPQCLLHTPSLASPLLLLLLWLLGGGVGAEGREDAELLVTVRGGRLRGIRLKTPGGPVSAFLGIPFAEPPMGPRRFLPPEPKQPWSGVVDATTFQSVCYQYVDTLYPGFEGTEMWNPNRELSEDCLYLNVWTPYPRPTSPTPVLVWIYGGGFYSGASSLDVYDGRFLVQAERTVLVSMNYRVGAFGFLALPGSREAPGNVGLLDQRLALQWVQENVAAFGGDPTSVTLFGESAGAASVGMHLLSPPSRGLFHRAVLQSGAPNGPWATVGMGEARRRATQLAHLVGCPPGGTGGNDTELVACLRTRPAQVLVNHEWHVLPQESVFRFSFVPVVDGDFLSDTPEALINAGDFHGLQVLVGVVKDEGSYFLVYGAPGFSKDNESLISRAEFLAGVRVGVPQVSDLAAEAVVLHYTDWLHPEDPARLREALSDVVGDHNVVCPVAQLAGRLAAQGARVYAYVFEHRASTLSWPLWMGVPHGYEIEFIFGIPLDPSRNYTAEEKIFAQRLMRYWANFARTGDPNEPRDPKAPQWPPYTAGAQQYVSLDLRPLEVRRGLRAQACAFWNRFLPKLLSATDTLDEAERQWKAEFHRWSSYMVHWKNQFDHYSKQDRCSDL
T1 sequence (P47746 whole entry, looked up): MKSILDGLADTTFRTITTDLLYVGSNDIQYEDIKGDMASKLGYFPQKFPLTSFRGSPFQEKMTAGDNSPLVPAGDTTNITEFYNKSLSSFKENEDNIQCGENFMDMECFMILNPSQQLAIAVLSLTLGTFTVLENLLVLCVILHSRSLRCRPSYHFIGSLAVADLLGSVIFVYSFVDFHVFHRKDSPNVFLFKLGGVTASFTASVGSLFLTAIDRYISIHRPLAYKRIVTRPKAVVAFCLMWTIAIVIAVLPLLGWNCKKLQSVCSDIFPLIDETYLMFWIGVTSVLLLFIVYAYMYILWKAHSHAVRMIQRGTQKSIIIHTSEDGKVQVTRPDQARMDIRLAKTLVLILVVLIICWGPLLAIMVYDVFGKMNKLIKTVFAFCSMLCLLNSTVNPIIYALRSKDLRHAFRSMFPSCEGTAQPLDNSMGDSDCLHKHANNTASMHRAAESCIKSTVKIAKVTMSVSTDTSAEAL
T1 sequence (P47936 whole entry, looked up): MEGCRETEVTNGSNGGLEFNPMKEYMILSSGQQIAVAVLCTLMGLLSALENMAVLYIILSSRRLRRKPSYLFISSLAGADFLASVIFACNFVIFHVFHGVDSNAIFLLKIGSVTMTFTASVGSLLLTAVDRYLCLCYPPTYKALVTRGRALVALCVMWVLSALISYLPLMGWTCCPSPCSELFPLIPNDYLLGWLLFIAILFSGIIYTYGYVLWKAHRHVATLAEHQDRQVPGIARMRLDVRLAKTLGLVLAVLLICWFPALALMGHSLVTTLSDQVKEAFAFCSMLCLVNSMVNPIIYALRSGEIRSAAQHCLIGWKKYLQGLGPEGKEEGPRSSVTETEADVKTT

Take `Cc1c(C(=O)NN2CCCCC2)nn(-c2ccc(Cl)cc2Cl)c1-c1ccc(I)cc1`: the inhibition in test [1] is 84.6%; in test [2], 72.7%; in test [3], 38.4%; in [4], 12.1%; in [5], -7.3%; in [6], -2%.
For the molecule `Cc1c(C(=O)c2cccc3ccccc23)c2cccc3c2n1[C@H](CN1CCOCC1)CO3`, the inhibition in [1] stood at 52%; in test [2], 31.9%; in [7] it was 33.2%; in [8], 61.8%; in test [9] it was 71.4%; in test [10], 54.8%. Besides, the inhibition was 11.5% in [3]; 54.5% in test [11]; 2% in test [4]; 17.8% in test [12]; 68.9% in test [13]; 81.3% in [14]. Also, the inhibition in [5] was -3.9%; in test [15] it was 32.7%; in [16], 2%; in test [17], -1.1%; in test [18], 22%; in test [6], -2.7%.
Turning to `O=C(c1ccccc1Cl)n1nc(OCCCN2CCCCC2)c2ccccc21`, the inhibition is 88.2% in test [1]; 51.5% in test [2]; 9.3% in test [7]; 13% in test [8]; 42.8% in test [9]; 34.3% in [10]. Besides, the inhibition in test [3] was 10.7%; in [19], 12%; in test [11] it was 8.9%; in test [4], 4.7%; in [12] it was -2.2%; in [13] it was 79.8%. Also, the inhibition in test [14] is 87.3%; in [5], -1.7%; in test [15], 2.8%; in [16], -7%; in test [17] it was -7.9%; in test [18], 6.2%. For the same molecule, in test [6], the inhibition was -0.4%. Moreover, the 50% inhibitory concentration (IC50) against Acetylcholinesterase is 9.7 µM; against Cholinesterase, 0.07 µM. The Activity in test [20] stood at 0.28 equiv.
For the molecule `O=C(c1cccc(Cl)c1Cl)n1nc(OCCN2CCCCC2)c2ccccc21`, the inhibition in [1] amounted to 43.4%; in [2], 23.5%; in [7], 8.6%; in [8] it was 29.4%; in [9], 80.5%; in test [10], 60.2%. Moreover, the inhibition in test [3] worked out at 3.1%; in test [19], 18.1%; in test [11], 15.6%; in [4], 1%; in test [12] it was 1.3%; in [13], 78.2%. For the same molecule, the inhibition in [14] was 87.2%; in [5], -1.8%; in test [15] it was 3.8%; in test [16] it was -1.3%; in test [17] it was -1.2%; in test [18], 2.4%. For the same molecule, the inhibition in test [6] was -0.9%. The IC50 amounted to 10.5 µM against Acetylcholinesterase and 0.6 µM against Cholinesterase. Also, the outcome in test [20] was inactive.
With `COc1ccc(CC(=O)n2nc(OCCN3CCCC3)c3ccccc32)cc1`, the inhibition is 78.6% in [1]; 44.3% in test [2]; 14% in test [7]; 23.4% in test [8]; 50.3% in test [9]; 47.9% in [10]. In addition, the inhibition in [3] is 12.2%; in test [19], 17%; in [11], 13.7%; in [4], 2.4%; in test [12], 2.4%; in [13], 78.6%. Further, the inhibition in [14] is 76.9%; in test [5], -1.7%; in test [15] it was 7.9%; in [16], 3.3%; in test [17] it was 0.1%; in test [18] it was 6.4%. Besides, in test [6], the inhibition was -0.9%. For the same molecule, the figures for the IC50 against Acetylcholinesterase and at Cholinesterase were over 10 µM and 9 µM, respectively. In test [20], the result was inactive.
As to `COc1cc(C(=O)n2nc(OCCN3CCCC3)c3ccccc32)cc(OC)c1OC`, the inhibition in [1] was 74%; in test [2], 42.4%; in test [7], 10.9%; in test [8], 26.9%; in [9], 49.7%; in test [10] it was 40%. Besides, the inhibition stood at 15% in [3]; 6% in [19]; 14.6% in test [11]; 5.6% in test [4]; 3.2% in [12]; 69.5% in test [13]. Besides, the inhibition in test [14] is 78%; in test [5], -0.7%; in test [15], 7%; in [16], 0.8%; in test [17], -1%; in test [18], 4.1%. Further, the inhibition in [6] turned out to be 6%. For the same molecule, the IC50 on Acetylcholinesterase is 11.6 µM; at Cholinesterase it was over 10 µM. Moreover, in test [20], the outcome was inactive.
With `O=C(c1cccc(F)c1F)n1nc(OCCN2CCCC2)c2ccccc21`, the inhibition in test [1] was determined as 29.9%; in [2], 23.3%; in test [7], 13.2%; in test [8] it was 24.1%; in [9] it was 37.5%; in test [10] it was 21.2%. Further, the inhibition in test [3] came out at 12.5%; in test [19], 14%; in [11] it was 11%; in test [4], 4.9%; in test [12] it was 0.8%; in test [13], 30.1%. Also, the inhibition in test [14] is 49.4%; in test [5] it was -1.6%; in test [15], 3.6%; in [16] it was -2.8%; in test [17], -3.8%; in test [18], 3.7%. The inhibition in test [6] was -1.2%. Besides, the IC50 on Acetylcholinesterase and at Cholinesterase was 11 µM in each case. In addition, the outcome in [20] was inactive.
In the case of `O=C(c1c(F)ccc(F)c1F)n1nc(OCCN2CCCCC2)c2ccccc21`, the inhibition in test [1] is 37.1%; in [2], 23.6%; in [7] it was 12.8%; in test [8], 40.6%; in test [9] it was 60.9%; in test [10] it was 32.3%. Moreover, the inhibition in [3] stood at 10.4%; in test [19], 14.3%; in test [11] it was 20.8%; in [4] it was 6.7%; in [12], 4.8%; in [13], 49.1%. In addition, the inhibition in test [14] is 73.2%; in test [5], -5.3%; in test [15], 9.2%; in test [16], -1.7%; in test [17], -3.3%; in test [18], 4.4%. For the same molecule, in [6], the inhibition was -3.5%. The half-inhibitory concentration (IC50) at Acetylcholinesterase and on Cholinesterase was 9.4 µM each time. The outcome in test [20] was inactive.
